In patent US8017606B2, “Quinoline derivatives as antibacterial agents” (Janssen Pharmaceutica NV, priority 2005, dated 2011):
≈ marks a conversion by molar mass, not a printed value.

Key:
Experiment in all cases: Microtitre plate assay, IC90 determination
Type in all cases: cell-based
[1] = test system: Bacillus subtilis (ATCC43639); settings: 90% inhibitory concentration for bacterial growth, 37° C., resazurin fluorescence, read-out: IC90 (μg/ml) BSU 43639
Description: (§1) The bacteria used in this study were grown overnight in flasks containing 100 ml Mueller-Hinton Broth (Becton Dickinson—cat. no. 275730) in sterile de-ionized water, with shaking, at 37° C. Stocks (0.5 ml/tube) were stored at −70° C. until use. Bacteria titrations were performed in microtiter plates and colony forming units (CFUs) were determined. In general, an inoculum level of approximately 100 CFUs was used for susceptibility testing.
(§2) Anti Bacterial Susceptibility Testing: IC90 Determination
(§3) Flat-bottom, sterile 96-well plastic microtiter plates were filled with 180 μl of sterile deionized water, supplemented with 0.25% BSA. Subsequently, stock solutions (7.8×final test concentration) of compounds were added in 45 μl volumes in column 2 Serial five-fold dilutions (45 μl in 180 μl) were made directly in the microtiter plates from column 2 to reach column 11. Untreated control samples with (column 1) and without (column 12) inoculum were included in each microtiter plate. Depending on the bacteria type, approximately 10 to 60 CFU per well of bacteria inoculum (100 TCID50), in a volume of 100 μl in 2.8× Mueller-Hinton broth medium, was added to the rows A to H, except column 12. The same volume of broth medium without inoculum was added to column 12 in row A to H. The cultures were incubated at 37° C. for 24 hours under a normal atmosphere (incubator with open air valve and continuous ventilation). At the end of incubation, one day after inoculation, the bacterial growth was quantitated fluorometrically. Therefore resazurin (0.6 mg/ml) was added in a volume of 20 μl to all wells […], and the plates were re-incubated overnight. A change in colour from blue to pink indicated the growth of bacteria.
(§4) The fluorescence was read in a computer-controlled fluorometer (Cytofluor Biosearch) at an excitation wavelength of 530 nm and an emission wavelength of 590 nm. The % growth inhibition achieved by the compounds was calculated according to standard methods. The IC90 (expressed in μg/ml) was defined as the 90% inhibitory concentration for bacterial growth.

[2] = test system: Enterococcus faecalis (ATCC29212); settings: 90% inhibitory concentration for bacterial growth, 37° C., resazurin fluorescence, read-out: IC90 (μg/ml) EFA 29212
Description: as §1, §2, §3, §4

[3] = test system: Listeria monocytogenes (ATCC49594); settings: 90% inhibitory concentration for bacterial growth, 37° C., resazurin fluorescence, read-out: IC90 (μg/ml) LMO 49594
Description: as §1, §2, §3, §4

[4] = test system: Pseudomonas aeruginosa (ATCC27853); settings: 90% inhibitory concentration for bacterial growth, 37° C., resazurin fluorescence, read-out: IC90 (μg/ml) PAE 27853
Description: as §1, §2, §3, §4

[5] = test system: Staphylococcus aureus (ATCC25923); settings: 90% inhibitory concentration for bacterial growth, 37° C., resazurin fluorescence, read-out: IC90 (μg/ml) STA 25923
Description: as §1, §2, §3, §4

[6] = test system: Staphylococcus aureus (ATCC29213); settings: 90% inhibitory concentration for bacterial growth, 37° C., resazurin fluorescence, read-out: IC90 (μg/ml) STA 29213
Description: as §1, §2, §3, §4

[7] = test system: Streptococcus pneumoniae (ATCC6305); settings: 90% inhibitory concentration for bacterial growth, 37° C., resazurin fluorescence, read-out: IC90 (μg/ml) SPN 6305
Description: as §1, §2, §3, §4

[8] = test system: Streptococcus pyogens (ATCC8668); settings: 90% inhibitory concentration for bacterial growth, 37° C., resazurin fluorescence, read-out: IC90 (μg/ml) SPY 8668
Description: as §1, §2, §3, §4

[9] = test system: methicilline resistant Staphylococcus aureus (MRSA) (a clinical isolate from the University of Antwerp); settings: 90% inhibitory concentration for bacterial growth, 37° C., resazurin fluorescence, read-out: IC90 (μg/ml) STA RMETHIC
Description: as §1, §2, §3, §4

Row | Compound | IC90 [1] | IC90 [2] | IC90 [3] | IC90 [4] | IC90 [5] | IC90 [6] | IC90 [7] | IC90 [8] | IC90 [9]
1 | COc1nc2cccc(C(O)(CCN(C)C)c3ccccc3)c2cc1-c1ccccc1 (centres unmarked) [Compound 4] | 10.4 µg/mL (≈ 25.2 µM) | 10.4 µg/mL (≈ 25.2 µM) | 10.4 µg/mL (≈ 25.2 µM) | 10.4 µg/mL (≈ 25.2 µM) | 10.4 µg/mL (≈ 25.2 µM) | 10.4 µg/mL (≈ 25.2 µM) | 10.4 µg/mL (≈ 25.2 µM) | 10.4 µg/mL (≈ 25.2 µM) | 10.4 µg/mL (≈ 25.2 µM)
2 | COc1nc2cccc(C(O)(CCN(C)C)c3ccco3)c2cc1-c1ccccc1 (centres unmarked) [Compound 5] | 10.1 µg/mL (≈ 25.1 µM) | 10.1 µg/mL (≈ 25.1 µM) | 10.1 µg/mL (≈ 25.1 µM) | 10.1 µg/mL (≈ 25.1 µM) | 10.1 µg/mL (≈ 25.1 µM) | 10.1 µg/mL (≈ 25.1 µM) | 10.1 µg/mL (≈ 25.1 µM) | 10.1 µg/mL (≈ 25.1 µM) | 9 µg/mL (≈ 22.4 µM)
3 | COc1nc2ccc(C(O)(CCN(C)C)c3cc(F)cc(F)c3)cc2cc1Cc1ccc(C)cc1 (centres unmarked) [Compound 7] | 37.9 µg/mL (≈ 79.5 µM) | 10.7 µg/mL (≈ 22.5 µM) | 7.6 µg/mL (≈ 15.9 µM) | 10.7 µg/mL (≈ 22.5 µM) | 7.6 µg/mL (≈ 15.9 µM) | 9.5 µg/mL (≈ 19.9 µM) | 12 µg/mL (≈ 25.2 µM) | 12 µg/mL (≈ 25.2 µM) | 37.9 µg/mL (≈ 79.5 µM)
4 | COc1cc(-c2ccccc2)c2cc(C(O)(CCN(C)C)c3cc(F)cc(F)c3)ccc2n1 (centres unmarked) [Compound 11] | 11.3 µg/mL (≈ 25.2 µM) | 11.3 µg/mL (≈ 25.2 µM) | 11.3 µg/mL (≈ 25.2 µM) | 11.3 µg/mL (≈ 25.2 µM) | 11.3 µg/mL (≈ 25.2 µM) | 11.3 µg/mL (≈ 25.2 µM) | 11.3 µg/mL (≈ 25.2 µM) | 9 µg/mL (≈ 20.1 µM) | 11.3 µg/mL (≈ 25.2 µM)
5 | COc1nc2c(C(O)(CCN(C)C)c3ccco3)cc(Br)cc2cc1-c1ccccc1 (centres unmarked) [Compound 13] | 12.1 µg/mL (≈ 25.1 µM) | 12.1 µg/mL (≈ 25.1 µM) | 12.1 µg/mL (≈ 25.1 µM) | 12.1 µg/mL (≈ 25.1 µM) | 12.1 µg/mL (≈ 25.1 µM) | 12.1 µg/mL (≈ 25.1 µM) | 10.8 µg/mL (≈ 22.4 µM) | 12.1 µg/mL (≈ 25.1 µM) | 12.1 µg/mL (≈ 25.1 µM)
6 | COc1cc(-c2ccccc2)c2cc(C(O)(CCN(C)C)c3ccccc3)ccc2n1 (centres unmarked) [Compound 14] | 10.4 µg/mL (≈ 25.2 µM) | 10.4 µg/mL (≈ 25.2 µM) | 10.4 µg/mL (≈ 25.2 µM) | 10.4 µg/mL (≈ 25.2 µM) | 10.4 µg/mL (≈ 25.2 µM) | 10.4 µg/mL (≈ 25.2 µM) | 10.4 µg/mL (≈ 25.2 µM) | 10.4 µg/mL (≈ 25.2 µM) | 10.4 µg/mL (≈ 25.2 µM)
7 | COc1cc(-c2ccccc2)c2cc(C(O)(CCN(C)C)c3ccco3)ccc2n1 (centres unmarked) [Compound 15] | 10.1 µg/mL (≈ 25.1 µM) | 10.1 µg/mL (≈ 25.1 µM) | 10.1 µg/mL (≈ 25.1 µM) | 10.1 µg/mL (≈ 25.1 µM) | 10.1 µg/mL (≈ 25.1 µM) | 10.1 µg/mL (≈ 25.1 µM) | 10.1 µg/mL (≈ 25.1 µM) | 10.1 µg/mL (≈ 25.1 µM) | 10.1 µg/mL (≈ 25.1 µM)
8 | COc1cc(-c2ccccc2)c2cc(C(O)(CCN(C)C)c3ccccn3)ccc2n1 (centres unmarked) [Compound 16] | 10.4 µg/mL (≈ 25.1 µM) | 10.4 µg/mL (≈ 25.1 µM) | 10.4 µg/mL (≈ 25.1 µM) | 10.4 µg/mL (≈ 25.1 µM) | 10.4 µg/mL (≈ 25.1 µM) | 10.4 µg/mL (≈ 25.1 µM) | 10.4 µg/mL (≈ 25.1 µM) | 10.4 µg/mL (≈ 25.1 µM) | 10.4 µg/mL (≈ 25.1 µM)
9 | CN(C)CCC(O)(c1cc(F)cc(F)c1)c1ccc2nc(-c3cccnc3)cc(-c3ccccc3)c2c1 (centres unmarked) [Compound 42] | 12.5 µg/mL (≈ 25.2 µM) | 12.5 µg/mL (≈ 25.2 µM) | 39.4 µg/mL (≈ 79.5 µM) | 12.5 µg/mL (≈ 25.2 µM) | 9.9 µg/mL (≈ 20 µM) | 39.4 µg/mL (≈ 79.5 µM) | 12.5 µg/mL (≈ 25.2 µM) | 12.5 µg/mL (≈ 25.2 µM) | 49.6 µg/mL (≈ 100 µM)
10 | CN(C)CCC(O)(c1ccccc1)c1ccc2nc(-c3cccnc3)cc(-c3ccccc3)c2c1 (centres unmarked) [Compound 43] |  | 11.5 µg/mL (≈ 25 µM) |  | 11.5 µg/mL (≈ 25 µM) |  | 11.5 µg/mL (≈ 25 µM) | 11.5 µg/mL (≈ 25 µM) | 11.5 µg/mL (≈ 25 µM) | 
11 | CN(C)CCC(O)(c1ccc2nc(-c3cccnc3)cc(-c3ccccc3)c2c1)c1ccco1 (centres unmarked) [Compound 44] | 11.3 µg/mL (≈ 25.1 µM) | 11.3 µg/mL (≈ 25.1 µM) | 11.3 µg/mL (≈ 25.1 µM) | 11.3 µg/mL (≈ 25.1 µM) | 11.3 µg/mL (≈ 25.1 µM) | 11.3 µg/mL (≈ 25.1 µM) | 11.3 µg/mL (≈ 25.1 µM) | 11.3 µg/mL (≈ 25.1 µM) | 11.3 µg/mL (≈ 25.1 µM)
12 | CN(C)CCC(O)(c1ccccc1)c1ccc2nc(N(C)C)cc(-c3ccccc3)c2c1 (centres unmarked) [Compound 47] | 10.7 µg/mL (≈ 25.1 µM) | 10.7 µg/mL (≈ 25.1 µM) | 10.7 µg/mL (≈ 25.1 µM) | 10.7 µg/mL (≈ 25.1 µM) | 10.7 µg/mL (≈ 25.1 µM) | 10.7 µg/mL (≈ 25.1 µM) | 10.7 µg/mL (≈ 25.1 µM) | 10.7 µg/mL (≈ 25.1 µM) | 10.7 µg/mL (≈ 25.1 µM)
13 | COc1nc2c(C(O)(CCN(C)C)c3cccs3)cc(-c3cccnc3)cc2cc1Cc1ccccc1 (centres unmarked) [Compound 67] | 51 µg/mL (≈ 100 µM) | 51 µg/mL (≈ 100 µM) | 51 µg/mL (≈ 100 µM) | 51 µg/mL (≈ 100 µM) | 51 µg/mL (≈ 100 µM) | 51 µg/mL (≈ 100 µM) | 22.8 µg/mL (≈ 44.7 µM) | 51 µg/mL (≈ 100 µM) | 51 µg/mL (≈ 100 µM)
